Assay results as given in PubChem BioAssay (NCI).
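96-well plates; 48 h exposure; 5 concentrations. Endpoints by linear interpolation between flanking doses. Not reached: highest tested concentration assigned. GI50 is the concentration that inhibits growth by half. TGI is the concentration that stops growth completely.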

What was measured:
Test in all cases: NCI tumour cell line growth inhibition, 48 h
SF-539 CNS = system: SF-539 CNS
COLO 205 colon = system: COLO 205 colon
SK-MEL-5 melanoma = system: SK-MEL-5 melanoma
T-47D breast = system: T-47D breast
UACC-257 melanoma = system: UACC-257 melanoma
OVCAR-8 ovarian = system: OVCAR-8 ovarian
UACC-62 melanoma = system: UACC-62 melanoma
NCI-H460 lung = system: NCI-H460 lung
EKVX NSCLC = system: EKVX NSCLC
NCI-H23 lung = system: NCI-H23 lung
SK-MEL-2 melanoma = system: SK-MEL-2 melanoma
DU-145 prostate = system: DU-145 prostate
SW-620 colon = system: SW-620 colon
HCC-2998 colon = system: HCC-2998 colon
MOLT-4 leukemia = system: MOLT-4 leukemia
CCRF-CEM leukemia = system: CCRF-CEM leukemia
TK-10 renal = system: TK-10 renal
MDA-MB-435 = system: MDA-MB-435
NCI-H522 lung = system: NCI-H522 lung
MCF7 breast = system: MCF7 breast
U251 CNS = system: U251 CNS
HS 578T breast = system: HS 578T breast
LOX IMVI melanoma = system: LOX IMVI melanoma
HCT-15 colon = system: HCT-15 colon
K-562 leukemia = system: K-562 leukemia
KM12 colon = system: KM12 colon
786-0 renal = system: 786-0 renal
NCI/ADR-RES ovarian = system: NCI/ADR-RES ovarian
OVCAR-5 ovarian = system: OVCAR-5 ovarian
CAKI-1 renal = system: CAKI-1 renal
UO-31 renal = system: UO-31 renal
OVCAR-4 ovarian = system: OVCAR-4 ovarian
HOP-92 NSCLC = system: HOP-92 NSCLC
HCT-116 colon = system: HCT-116 colon
RPMI-8226 leukemia = system: RPMI-8226 leukemia
NCI-H226 lung = system: NCI-H226 lung
RXF 393 renal = system: RXF 393 renal
SF-268 CNS = system: SF-268 CNS
SF-295 CNS = system: SF-295 CNS
HOP-62 NSCLC = system: HOP-62 NSCLC
SNB-75 CNS = system: SNB-75 CNS
ACHN renal = system: ACHN renal
M14 melanoma = system: M14 melanoma
PC-3 prostate = system: PC-3 prostate
BT-549 breast = system: BT-549 breast
SK-OV-3 ovarian = system: SK-OV-3 ovarian
SN12C renal = system: SN12C renal
SK-MEL-28 melanoma = system: SK-MEL-28 melanoma
SNB-19 CNS = system: SNB-19 CNS
IGROV1 ovarian = system: IGROV1 ovarian
OVCAR-3 ovarian = system: OVCAR-3 ovarian
MDA-MB-231 breast = system: MDA-MB-231 breast
A549 NSCLC = system: A549 NSCLC
HT29 colon = system: HT29 colon

In the case of `COc1ccc2nc(C3=CN(C4OC(CO)C(O)C(O)C4O)C4C=CC=CC34)sc2c1` (stereo not drawn), the GI50 (SF-539 CNS) is reported as 29.3 µM, the TGI (SF-539 CNS) is reported as 77.7 µM and the GI50 (COLO 205 colon) is reported as 27.2 µM. For the same compound, the TGI (COLO 205 colon) was > 100 µM, the GI50 (SK-MEL-5 melanoma) was 31.5 µM and the TGI (SK-MEL-5 melanoma) was 80.7 µM. For the same compound, the GI50 (T-47D breast) was 45 µM, the TGI (T-47D breast) was > 100 µM and the GI50 (UACC-257 melanoma) was 28 µM. For the same compound, the TGI (UACC-257 melanoma) was 89.3 µM, the GI50 (OVCAR-8 ovarian) was 25.2 µM and the TGI (OVCAR-8 ovarian) was 77.8 µM. The GI50 (UACC-62 melanoma) was 22.2 µM, the TGI (UACC-62 melanoma) was 67.6 µM and the GI50 (NCI-H460 lung) was > 100 µM. The TGI (NCI-H460 lung) was > 100 µM, the GI50 (EKVX NSCLC) was 39.7 µM and the TGI (EKVX NSCLC) was > 100 µM. For the same compound, the GI50 (NCI-H23 lung) was 33.9 µM, the TGI (NCI-H23 lung) was > 100 µM and the GI50 (SK-MEL-2 melanoma) was 38.8 µM. For the same compound, the TGI (SK-MEL-2 melanoma) was > 100 µM, the GI50 (DU-145 prostate) was 38.8 µM and the TGI (DU-145 prostate) was > 100 µM. The GI50 (SW-620 colon) was 41.9 µM, the TGI (SW-620 colon) was > 100 µM and the GI50 (HCC-2998 colon) was 22.7 µM. The TGI (HCC-2998 colon) was 53.1 µM, the GI50 (MOLT-4 leukemia) was 21.9 µM and the TGI (MOLT-4 leukemia) was 90.8 µM. For the same compound, the GI50 (CCRF-CEM leukemia) was 42.4 µM, the TGI (CCRF-CEM leukemia) was > 100 µM and the GI50 (TK-10 renal) was 27.3 µM. The TGI (TK-10 renal) was 51.5 µM, the GI50 (MDA-MB-435) was 37.1 µM and the TGI (MDA-MB-435) was > 100 µM. For the same compound, the GI50 (NCI-H522 lung) was 24 µM, the TGI (NCI-H522 lung) was 76.5 µM and the GI50 (MCF7 breast) was > 100 µM. For the same compound, the TGI (MCF7 breast) was > 100 µM, the GI50 (U251 CNS) was 28.5 µM and the TGI (U251 CNS) was > 100 µM. For the same compound, the GI50 (HS 578T breast) was 34.4 µM, the TGI (HS 578T breast) was 94.4 µM and the GI50 (LOX IMVI melanoma) was 19.4 µM. The TGI (LOX IMVI melanoma) was 56.6 µM, the GI50 (HCT-15 colon) was 32.4 µM and the TGI (HCT-15 colon) was > 100 µM. It also gave a GI50 (K-562 leukemia) of 28.5 µM, a TGI (K-562 leukemia) of 87.7 µM and a GI50 (KM12 colon) of 24.1 µM. For the same compound, the TGI (KM12 colon) was 75.7 µM, the GI50 (786-0 renal) was 15.6 µM and the TGI (786-0 renal) was 58.4 µM. For the same compound, the GI50 (NCI/ADR-RES ovarian) was > 100 µM, the TGI (NCI/ADR-RES ovarian) was > 100 µM and the GI50 (OVCAR-5 ovarian) was 26.8 µM. For the same compound, the TGI (OVCAR-5 ovarian) was 83.2 µM, the GI50 (CAKI-1 renal) was 40.7 µM and the TGI (CAKI-1 renal) was > 100 µM. The GI50 (UO-31 renal) was 41.1 µM, the TGI (UO-31 renal) was > 100 µM and the GI50 (OVCAR-4 ovarian) was > 100 µM. The TGI (OVCAR-4 ovarian) was > 100 µM, the GI50 (HOP-92 NSCLC) was 67.4 µM and the TGI (HOP-92 NSCLC) was > 100 µM. For the same compound, the GI50 (HCT-116 colon) was 22.7 µM, the TGI (HCT-116 colon) was 81.7 µM and the GI50 (RPMI-8226 leukemia) was 40.3 µM. The TGI (RPMI-8226 leukemia) was > 100 µM, the GI50 (NCI-H226 lung) was 21.4 µM and the TGI (NCI-H226 lung) was 79.3 µM. The GI50 (RXF 393 renal) was 34.6 µM, the TGI (RXF 393 renal) was > 100 µM and the GI50 (SF-268 CNS) was > 100 µM. The TGI (SF-268 CNS) was > 100 µM, the GI50 (SF-295 CNS) was 26.6 µM and the TGI (SF-295 CNS) was 82.3 µM. The GI50 (HOP-62 NSCLC) was 22.6 µM, the TGI (HOP-62 NSCLC) was 56.9 µM and the GI50 (SNB-75 CNS) was 55 µM. The TGI (SNB-75 CNS) was > 100 µM, the GI50 (ACHN renal) was 19 µM and the TGI (ACHN renal) was 46.1 µM. It also gave a GI50 (M14 melanoma) of 33 µM, a TGI (M14 melanoma) of 93.8 µM and a GI50 (PC-3 prostate) of 38.9 µM. For the same compound, the TGI (PC-3 prostate) was > 100 µM, the GI50 (BT-549 breast) was 33.9 µM and the TGI (BT-549 breast) was > 100 µM. The GI50 (SK-OV-3 ovarian) was 96 µM, the TGI (SK-OV-3 ovarian) was > 100 µM and the GI50 (SN12C renal) was 29.7 µM. For the same compound, the TGI (SN12C renal) was 94.1 µM, the GI50 (SK-MEL-28 melanoma) was > 100 µM and the TGI (SK-MEL-28 melanoma) was > 100 µM. For the same compound, the GI50 (SNB-19 CNS) was 46.8 µM, the TGI (SNB-19 CNS) was > 100 µM and the GI50 (IGROV1 ovarian) was 13.5 µM. For the same compound, the TGI (IGROV1 ovarian) was 34.8 µM, the GI50 (OVCAR-3 ovarian) was 87.5 µM and the TGI (OVCAR-3 ovarian) was > 100 µM. The GI50 (MDA-MB-231 breast) was 23.9 µM, the TGI (MDA-MB-231 breast) was 61.6 µM and the GI50 (A549 NSCLC) was 28.3 µM. For the same compound, the TGI (A549 NSCLC) was > 100 µM, the GI50 (HT29 colon) was 59.9 µM and the TGI (HT29 colon) was > 100 µM.
